For the assay, the target named is T1, human TMEM16A (TMEM16Aabc variant) (Homo sapiens, UniProt Q5XXA6).
T1 construct: human TMEM16A (TMEM16Aabc variant)
T1 sequence (Q5XXA6 1-986): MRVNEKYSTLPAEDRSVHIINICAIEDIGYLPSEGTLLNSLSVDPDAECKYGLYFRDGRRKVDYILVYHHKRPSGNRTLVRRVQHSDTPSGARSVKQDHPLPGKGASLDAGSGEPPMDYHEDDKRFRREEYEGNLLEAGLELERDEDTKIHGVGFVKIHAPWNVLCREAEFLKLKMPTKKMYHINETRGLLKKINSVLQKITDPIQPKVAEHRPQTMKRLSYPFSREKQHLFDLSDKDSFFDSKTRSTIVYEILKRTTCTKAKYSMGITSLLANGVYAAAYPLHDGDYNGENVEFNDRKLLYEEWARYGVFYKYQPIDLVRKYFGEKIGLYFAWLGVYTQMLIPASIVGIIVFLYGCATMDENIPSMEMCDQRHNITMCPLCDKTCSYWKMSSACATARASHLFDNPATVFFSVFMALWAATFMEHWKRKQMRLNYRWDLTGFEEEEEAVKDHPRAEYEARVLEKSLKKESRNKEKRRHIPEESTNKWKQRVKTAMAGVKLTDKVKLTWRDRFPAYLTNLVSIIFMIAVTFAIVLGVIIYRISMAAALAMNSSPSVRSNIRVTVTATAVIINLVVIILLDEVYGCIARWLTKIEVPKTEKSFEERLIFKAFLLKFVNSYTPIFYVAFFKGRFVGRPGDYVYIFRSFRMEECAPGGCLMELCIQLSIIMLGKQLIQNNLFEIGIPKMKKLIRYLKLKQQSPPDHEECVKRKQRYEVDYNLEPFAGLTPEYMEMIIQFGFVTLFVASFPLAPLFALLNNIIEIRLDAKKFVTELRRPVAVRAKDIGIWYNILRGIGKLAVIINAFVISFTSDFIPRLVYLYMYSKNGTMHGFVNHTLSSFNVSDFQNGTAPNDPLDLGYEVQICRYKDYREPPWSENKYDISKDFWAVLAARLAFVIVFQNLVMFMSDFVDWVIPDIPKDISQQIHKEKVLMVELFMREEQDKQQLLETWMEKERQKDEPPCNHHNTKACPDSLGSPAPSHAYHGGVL
The assay can be described thus: Automated whole-cell patch clamp (QPatch) TMEM16A potentiator assay in FRT cells stably expressing human TMEM16A. The assay is classed as cell-based. As to conditions: for QPatch TMEM16A % Potentiation @ 370 nM: 370 nM test compound; for QPatch TMEM16A % Potentiation @ 370 nM / QPatch TMEM16A % Potentation @ 3.3 μM: percentage increase of baseline TMEM16A current; for QPatch TMEM16A % Potentation @ 3.3 μM: 3.3 μM test compound; for EC50: FRT-TMEM16A cells, whole-cell patch clamp, peak current at +70 mV, intracellular calcium at EC20. The protocol:
Fisher rat thyroid (FRT) cells stably expressing human TMEM16A (TMEM16Aabc variant; Dr Luis Galietta, Insituto Giannina, Italy) were cultured in T-75 flasks in Hams F-12 media with Coon's modification (Sigma) supplemented with 10% (v/v) foetal bovine serum, penicillin-streptomycin (10,000 U/mL/10000 μg/mL), G-418 (750 μg/mL), L-glutamine (2 mM) and sodium bicarbonate solution (7.5% v/v). At ˜90% confluence cells were harvested for experiments by detachment with a 2:1 (v/v) mixture of Detachin (BMS Biotechnology) and 0.25% (w/v) trypsin-EDTA.
FRT-TMEM16A cells were whole-cell patch clamped using an automated planar patch clamp system (Qpatch, Sophion). Briefly, once high resistance (GOhm) seals were established between the cells and the planar recording array the patch was ruptured using suction pulses to establish the whole-cell recording configuration of the patch clamp technique. The assay employed the following solutions (all reagents Sigma): Intracellular solution (mM): N-methyl-D-glucamine 130, CaCl2 18.2, MgCl2 1, HEPES 10, EGTA 10, BAPTA 20, Mg-ATP 2, pH 7.25, 325 mOsm with sucrose.
Extracellular solution (mM): N-methyl-D-glucamine 130, CaCl2 2, MgCl2 1, HEPES 10, pH 7.3, 320 mOsm with sucrose.
The intracellular solution buffers intracellular calcium at levels required to give ˜20% activation of the maximal TMEM16A mediated current (EC20 for calcium ions). Cells were voltage clamped at a holding potential of −70 mV and a combined voltage step (to +70 mV)/ramp (−90 my to +90 mV) was applied at 0.05 Hz. After a period of current stabilisation test compounds, solubilised in 100% (v/v) DMSO and subsequently diluted into extracellular solution, were applied to generate a cumulative concentration response curve. Each concentration of test compound was incubated for 5 minutes before addition of the next concentration. After the final concentration was tested a supramaximal concentration of either a known active positive modulator or the TMEM16A inhibitor, CaCCinhA01 (Del La Fuente et al, 2008) was added to define the upper and lower limits of the assay.
Compound activity was quantified by measuring the increase in current upon compound addition and expressing this as a percentage increase of baseline TMEM16A current level.
In FIG. 1, IBL equals baseline current, I[#1] equals the peak current during test compound concentration 1 incubation period and so on.
Peak TMEM16A current at +70 mV was plotted as a function of time over the assay period. Baseline current (IBL) was measured after a period of stabilisation. The increase in current for each compound addition was determined by taking the peak current during the incubation period and subtracting the current from the previous recording period and then expressing this as a percentage of the baseline current (% potentiation). For test compound concentration 1 in FIG. 1 this is: (I[#1]−IBL/IBL)×100 For each additional concentration tested the increase in current was determined by subtracting the current from the previous incubation period and normalising the baseline value—for test concentration 2 in FIG. 1 this is: (I[#2]−I[#1])/IBL)×100 The values for each test concentration were plotted as a cumulative function of concentration eg. for test concentration two this would be the sum of the peak changes measured during concentration one plus concentration two.
Background: The patch-clamp technique gives a direct electrical read-out from membranes.

One may read the EC50 as the midpoint of the concentration-response curve. Consider `C#CC1(NC(=O)c2cc(NC(=O)Cc3cc(Cl)c4cn[nH]c4c3)ccn2)CCCC1` [Example 6.4, 4-[[2-(4-Chloro-1H-indazol-6-yl)acetyl]amino]-N-(1-ethynylcyclopentyl) pyridine-2-carboxamide], for which the “QPatch TMEM16A % Potentiation @ 370 nM” value is recorded as 55%, the “QPatch TMEM16A % Potentation @ 3.3 μM” value came to 78% and the concentration giving a half-maximal response (EC50) came to 20 nM.
Turning to `CC(C)(C)NC(=O)c1cc(NC(=O)Cc2cc(F)c3cn[nH]c3c2)ccn1` [Example 7, N-tert-Butyl-4-[[2-(4-fluoro-1H-indazol-6-yl)acetyl]amino]pyridine-2-carboxamide], the “QPatch TMEM16A % Potentiation @ 370 nM” value is recorded as 88%, the “QPatch TMEM16A % Potentation @ 3.3 μM” value worked out at 95% and the EC50 amounted to 70 nM.
Consider `CC(C)(C)NC(=O)c1cc(NC(=O)Cc2cc3[nH]ncc3cc2Cl)ccn1` [Example 7.1, N-tert-Butyl-4-[[2-(5-chloro-1H-indazol-6-yl)acetyl]amino]pyridine-2-carboxamide], for which the “QPatch TMEM16A % Potentiation @ 370 nM” value was determined as 47%, the “QPatch TMEM16A % Potentation @ 3.3 μM” value is 82% and the EC50 came out at 270 nM.
The like results for `CC(C)(C)NC(=O)c1cc(NC(=O)Cc2cc(Cl)c3cn[nH]c3c2)ccn1` [Example 7.2, N-tert-Butyl-4-[[2-(4-chloro-1H-indazol-6-yl)acetyl]amino]pyridine-2-carboxamide] were, in that order, 102%, 142% and 140 nM.
On to `CC(C)(C)NC(=O)c1cc(NC(=O)Cc2ccc3c(C(F)(F)F)n[nH]c3c2)ccn1` [Example 8, N-tert-Butyl-4-[[2-[3-(trifluoromethyl)-1H-indazol-6-yl]acetyl]amino]pyridine-2-carboxamide], for which the “QPatch TMEM16A % Potentiation @ 370 nM” value is 65%, the “QPatch TMEM16A % Potentation @ 3.3 μM” value is recorded as 98% and the EC50 was determined as 210 nM.
`O=C(Cc1ccc2c(C(F)(F)F)n[nH]c2c1)Nc1ccnc(C(=O)NC2(C(F)(F)F)CC2)c1` [Example 8.1, N-[1-(Trifluoromethyl)cyclopropyl]-4-[[2-[3-(trifluoromethyl)-1H-indazol-6-yl]acetyl]amino]pyridine-2-carboxamide]: the “QPatch TMEM16A % Potentiation @ 370 nM” value turned out to be 97%, the “QPatch TMEM16A % Potentation @ 3.3 μM” value is on record as 267% and the EC50 stood at 600 nM.
`CC(C)c1n[nH]c2cc(CC(=O)Nc3ccnc(C(=O)NC(C)(C)C)c3)ccc12` [Example 9, N-tert-Butyl-4-[[2-(3-isopropyl-1H-indazol-6-yl)acetyl]amino]pyridine-2-carboxamide]: the “QPatch TMEM16A % Potentiation @ 370 nM” value came to 113%, the “QPatch TMEM16A % Potentation @ 3.3 μM” value is reported as 200% and the EC50 is 280 nM.
For `O=C(Cc1ccc2cn[nH]c2c1)Nc1ccnc(C(=O)NC2(C(F)(F)F)COC2)c1` [Example 11.3, 4-[[2-(1H-Indazol-6-yl)acetyl]amino]-N-[3-(trifluoromethyl)oxetan-3-yl]pyridine-2-carboxamide], the “QPatch TMEM16A % Potentiation @ 370 nM” value was 117%, the “QPatch TMEM16A % Potentation @ 3.3 μM” value amounted to 180% and the 50% effective concentration (EC50) was 220 nM.
Take `O=C(Cc1ccc2cn[nH]c2c1)Nc1ccnc(C(=O)NC2(C(F)F)CC2)c1` [Example 11.4, N-[1-(Difluoromethyl)cyclopropyl]-4-[[2-(1H-indazol-6-yl)acetyl]amino] pyridine-2-carboxamide]: the “QPatch TMEM16A % Potentiation @ 370 nM” value stood at 85%, the “QPatch TMEM16A % Potentation @ 3.3 μM” value turned out to be 132% and the EC50 was found to be 210 nM.
As for `O=C(Cc1ccc2cn[nH]c2c1)Nc1ccnc(C(=O)NC23CC(F)(C2)C3)c1` [Example 11.5, N-(3-Fluoro-1-bicyclo[1.1.1]pentanyl)-4-[[2-(1H-indazol-6-yl)acetyl]amino]pyridine-2-carboxamide], the “QPatch TMEM16A % Potentiation @ 370 nM” value is recorded as 41%, the “QPatch TMEM16A % Potentation @ 3.3 μM” value is on record as 61% and the EC50 was found to be 140 nM.
`CC(O)(c1n[nH]c2cc(CC(=O)Nc3ccnc(C(=O)NC4(C(F)(F)F)CC4)c3)ccc12)C(F)(F)F` (centres unmarked) [Example 12, 4-[[2-[3-(2,2,2-Trifluoro-1-hydroxy-1-methyl-ethyl)-1H-indazol-6-yl]acetyl]amino]-N-[1-(trifluoromethyl)cyclopropyl]pyridine-2-carboxamide]: the “QPatch TMEM16A % Potentiation @ 370 nM” value is given as 204%, the “QPatch TMEM16A % Potentation @ 3.3 μM” value was found to be 338% and the EC50 turned out to be 240 nM.
As for `CC(C)(NC(=O)c1cc(NC(=O)Cc2ccc3cc[nH]c3c2)ccn1)C(F)(F)F` [Example 13, 4-[[2-(1H-Indol-6-yl)acetyl]amino]-N-(2,2,2-trifluoro-1,1-dimethyl-ethyl) pyridine-2-carboxamide], the “QPatch TMEM16A % Potentiation @ 370 nM” value is on record as 47%, the “QPatch TMEM16A % Potentation @ 3.3 μM” value came to 93% and the EC50 is 410 nM.
For `N#CC1(NC(=O)c2cc(NC(=O)Cc3ccc4cc[nH]c4c3)ccn2)CCOCC1` [Example 13.2, N-(4-Cyanotetrahydropyran-4-yl)-4-[[2-(1H-indol-6-yl)acetyl]amino] pyridine-2-carboxamide], the “QPatch TMEM16A % Potentiation @ 370 nM” value was 98%, the “QPatch TMEM16A % Potentation @ 3.3 μM” value is listed as 134% and the EC50 came to 130 nM. Moreover, for the setting “indole compounds versus comparator Compound B”, the “EC50 compared with Compound B” value is “lower EC50 values than Compound B”. The “maximum potentiation of TMEM16A compared with Compound B” value (versus comparator Compound B) was “improved maximum potentiation of TMEM16A”.

The values above are taken from patent US12545658B2, “Pyridine derivatives as calcium-activated chloride channel modulators” (TMEM16A LIMITED, priority 2019, dated 2026).
